Laboratory results reported in the supplement of paper PMC11061612.

Columns and labels:
Test in all cases: combination Emax (second highest fraction inhibited in the dose matrix, 72 h); higher = more inhibition; extreme values may be limits of the assay
PEO1 (Ovarian Carcinoma) = tested on: PEO1 (Ovarian Carcinoma)
Procedure, shortened: (§1)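 After 24 hours at 37°C and 5% CO2 in 1536-well plates, cells in DMEM/F12 or RPMI plus 10% FBS received two-drug dose matrices for 72 hours. Viability came from CellTiter-Glo 2.0 luminescence and was scaled as inhibition, anchored at 0 by vehicle wells and at 1 by blank wells. Combination Emax is taken as the second-highest inhibition in the matrix, and Bliss excess as the observed combination effect less EA + EB − EA·EB, with EA and EB the single-agent effects.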

[1] = tested on: NCI-H441 (Lung Adenocarcinoma)
Procedure, shortened: as §1

[2] = tested on: 22RV1 (Prostate Carcinoma)
Procedure, shortened: as §1

[3] = tested on: SK-HEP-1 (Hepatocellular Carcinoma)
Procedure, shortened: as §1

[4] = tested on: NCI-H1703 (Squamous Cell Lung Carcinoma)
Procedure, shortened: as §1

[5] = tested on: MHH-ES-1 (Ewing's Sarcoma)
Procedure, shortened: as §1

EW-7 (Ewing's Sarcoma) = tested on: EW-7 (Ewing's Sarcoma)
Procedure, shortened: as §1

[6] = tested on: MDA-MB-436 (Breast Carcinoma)
Procedure, shortened: as §1

KP-N-YN (Neuroblastoma) = tested on: KP-N-YN (Neuroblastoma)
Procedure, shortened: as §1

Row | SMILES | combination Emax (PEO1 (Ovarian Carcinoma)) | combination Emax [1] | combination Emax [2] | combination Emax [3] | combination Emax [4] | combination Emax [5] | combination Emax (EW-7 (Ewing's Sarcoma)) | combination Emax [6] | combination Emax (KP-N-YN (Neuroblastoma))
1 | C[C@@H]1COCCN1c1cc(C2([S@](C)(=N)=O)CC2)nc(-c2ccnc3[nH]ccc23)n1 [AZD6738] + C1CC(C1)(C(=O)[O-])C(=O)[O-].N.N.[Pt+2] [Carboplatin] (first compound max 10 µM, 7x7, partner max 10 µM) | 0.675 | 0.394 | 0.553 | 0.166 | 0.932 | 0.51 | 0.936 | 0.266 | 
2 | CC1(C)CCC(CN2CCN(c3ccc(C(=O)NS(=O)(=O)c4ccc(NCC5CCOCC5)c([N+](=O)[O-])c4)c(Oc4cnc5[nH]ccc5c4)c3)CC2)=C(c2ccc(Cl)cc2)C1 [Venetoclax] + CS(=O)(=O)CCNCc1ccc(-c2ccc3ncnc(Nc4ccc(OCc5cccc(F)c5)c(Cl)c4)c3c2)o1 [Lapatinib] (first compound max 1 µM, 7x7, partner max 10 µM) | 0.287 | 0.165 | 0.266 | 0.308 | 0.385 | 0.371 | 0.656 | 0.227 | 0.57
3 | Cc1nc(-c2cn3c(n2)-c2ccc(-c4cnn(C(C)(C)C(N)=O)c4)cc2OCC3)n(C(C)C)n1 [Taselisib] + O=C(Nc1ccc2[nH]nc(-c3ccncc3)c2c1)[C@@H]1CCN(CC(=O)N2CCN(c3ccc(-c4ncccn4)cc3)CC2)C1 [SCH772984] (first compound max 10 µM, 7x7, partner max 5 µM) | 0.818 | 0.562 | 0.702 | 0.389 | 0.722 | 0.609 | 0.999 | 0.469 | 0.553
4 | C[C@@H](Nc1cc(F)cc(F)c1)c1cc(C(=O)N(C)C)cc2c(=O)cc(N3CCOCC3)oc12 [AZD8186] + CC(=O)c1c(C)c2cnc(Nc3ccc(N4CCNCC4)cn3)nc2n(C2CCCC2)c1=O [Palbociclib] (first compound max 10 µM, 7x7, partner max 10 µM) | 0.454 | 0.447 | 0.563 | 0.578 | 0.643 | 0.602 | 0.509 | 0.472 | 0.433
5 | O=C(c1cc(Cc2n[nH]c(=O)c3ccccc23)ccc1F)N1CCN(C(=O)C2CC2)CC1 [Olaparib] + Cc1c2c(nn1C)CSCc1cc(n(C)n1)CSc1cc(c3ccccc3c1)OCCCc1c(C(=O)O)n(C)c3c-2c(Cl)ccc13 [AZD5991] (first compound max 10 µM, 7x7, partner max 1 µM) | 0.112 | 0.0979 | 0.519 | 0.478 | 0.859 | 0.879 | 0.787 | 0.234 | 0.335
6 | Cc1c2c(nn1C)CSCc1cc(n(C)n1)CSc1cc(c3ccccc3c1)OCCCc1c(C(=O)O)n(C)c3c-2c(Cl)ccc13 [AZD5991] + CC(=O)O[C@H]1C(=O)[C@@]2(C)[C@H]([C@H](OC(=O)c3ccccc3)[C@]3(O)C[C@H](OC(=O)[C@H](O)[C@@H](NC(=O)c4ccccc4)c4ccccc4)C(C)=C1C3(C)C)[C@]1(OC(C)=O)CO[C@@H]1C[C@@H]2O [Paclitaxel] (first compound max 1 µM, 7x7, partner max 3 µM) | 0.762 | 0.401 | 0.912 | 0.857 | 0.993 | 0.965 | 0.984 | 0.391 | 0.608
7 | C[C@@H](Oc1cc(-c2cnn(C3CCNCC3)c2)cnc1N)c1c(Cl)ccc(F)c1Cl [Crizotinib] + Cn1cnc2c(F)c(Nc3ccc(Br)cc3Cl)c(C(=O)NOCCO)cc21 [Selumetinib] (first compound max 10 µM, 7x7, partner max 10 µM) | 0.297 | 0.415 | 0.59 | 0.387 | 0.535 | 0.889 | 0.929 | 0.292 | 0.607
8 | Cc1c2c(nn1C)CSCc1cc(n(C)n1)CSc1cc(c3ccccc3c1)OCCCc1c(C(=O)O)n(C)c3c-2c(Cl)ccc13 [AZD5991] + CS(=O)(=O)CCNCc1ccc(-c2ccc3ncnc(Nc4ccc(OCc5cccc(F)c5)c(Cl)c4)c3c2)o1 [Lapatinib] (first compound max 1 µM, 7x7, partner max 10 µM) | 0.442 | 0.229 | 0.55 | 0.632 | 0.935 | 0.58 | 0.666 | 0.274 | 0.374
9 | O=C(c1cc(Cc2n[nH]c(=O)c3ccccc23)ccc1F)N1CCN(C(=O)C2CC2)CC1 [Olaparib] + CN(CC[C@H](CSC1=CC=CC=C1)NC2=C(C=C(C=C2)S(=O)(=O)NC(=O)C3=CC=C(C=C3)N4CCC(CC4)[C@H](C5=CC=CC=C5C6=CC=C(C=C6)Cl)O)S(=O)(=O)C(F)(F)F)CCO [AZD4320] (first compound max 10 µM, 7x7, partner max 1 µM) | 0.242 | 0.213 | 0.183 | 0.911 | 0.19 | 0.952 | 0.944 | 0.308 | 0.968
10 | C=CCn1c(=O)c2cnc(Nc3ccc(N4CCN(C)CC4)cc3)nc2n1-c1cccc(C(C)(C)O)n1 [AZD1775] + Nc1ccn([C@@H]2O[C@H](CO)[C@@H](O)C2(F)F)c(=O)n1 [Gemcitabine] (first compound max 1 µM, partner max 0.3 µM) | 0.65 | 0.55 | 0.744 | 0.514 | 0.984 | 0.983 | 1 | 0.608 | 
11 | C[C@@H](Oc1cc(-c2cnn(C3CCNCC3)c2)cnc1N)c1c(Cl)ccc(F)c1Cl [Crizotinib] + CC1=C(C(=CC=C1)Cl)NC(=O)C2=CN=C(S2)NC3=CC(=NC(=N3)C)N4CCN(CC4)CCO [Dasatinib] (first compound max 10 µM, 7x7, partner max 2 µM) | 0.532 | 0.63 | 0.468 | 0.433 | 0.799 | 0.77 | 0.945 | 0.3 | 0.71
12 | C[C@@H]1COCCN1c1cc(C2([S@](C)(=N)=O)CC2)nc(-c2ccnc3[nH]ccc23)n1 [AZD6738] + Nc1ccn([C@@H]2O[C@H](CO)[C@@H](O)C2(F)F)c(=O)n1 [Gemcitabine] (first compound max 10 µM, 7x7, partner max 0.3 µM) | 0.696 | 0.568 | 0.754 | 0.645 | 0.954 | 0.995 | 1 | 0.621 | 
13 | C[C@@H](Nc1cc(F)cc(F)c1)c1cc(C(=O)N(C)C)cc2c(=O)cc(N3CCOCC3)oc12 [AZD8186] + C1CN(CCC1(C(=O)N[C@@H](CCO)C2=CC=C(C=C2)Cl)N)C3=NC=NC4=C3C=CN4 [AZD5363] (first compound max 10 µM, 7x7, partner max 10 µM) | 0.351 | 0.28 | 0.546 | 0.159 | 0.635 | 0.358 | 0.678 | 0.449 | 0.257
14 | Cc1c2c(nn1C)CSCc1cc(n(C)n1)CSc1cc(c3ccccc3c1)OCCCc1c(C(=O)O)n(C)c3c-2c(Cl)ccc13 [AZD5991] + Nc1ccn([C@@H]2O[C@H](CO)[C@@H](O)C2(F)F)c(=O)n1 [Gemcitabine] (first compound max 1 µM, 7x7, partner max 0.3 µM) | 0.544 | 0.519 | 0.886 | 0.535 | 0.954 | 0.935 | 1 | 0.56 | 
15 | C=CCn1c(=O)c2cnc(Nc3ccc(N4CCN(C)CC4)cc3)nc2n1-c1cccc(C(C)(C)O)n1 [AZD1775] + CCc1c2c(nc3ccc(O)cc13)-c1cc3c(c(=O)n1C2)COC(=O)[C@]3(O)CC [SN-38] (first compound max 1 µM, partner max 0.3 µM) | 0.768 | 0.685 | 0.732 | 0.622 | 0.992 | 0.985 | 0.966 | 0.591 | 
16 | CN(CCO)CC[C@H](CSc1ccccc1)Nc1ccc(S(=O)(=O)NC(=O)c2ccc(N3CCC([C@@H](O)c4ccccc4-c4ccc(Cl)cc4)CC3)cc2)cc1S(=O)(=O)C(F)(F)F [AZD4320] + CS(=O)(=O)CCNCc1ccc(-c2ccc3ncnc(Nc4ccc(OCc5cccc(F)c5)c(Cl)c4)c3c2)o1 [Lapatinib] (first compound max 1 µM, 7x7, partner max 10 µM) | 0.829 | 0.479 | 0.335 | 0.909 | 0.862 | 0.973 | 0.979 | 0.256 | 
